Molecular target: DGKα (Homo sapiens (Human), UniProt P23743)
Test: Human DGKα kinase activity inhibition assay (ADP-Glo)
Assay type: biochemical
Settings: recombinant full-length human DGKα, 55 μM ATP, 7 μM 1,2-dioleoyl-sn-glycerol, read-out: IC50 values of examples in in vitro human DGKa kinase activity inhibition assays
Procedure, shortened: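 Recombinant full-length human DGKα (C-terminal FLAG, from insect cells) phosphorylated 1,2-dioleoyl-sn-glycerol presented in octyl-glucopyranoside micelles. ADP formed was quantified by ADP-Glo luminescence. Compounds were added from 100-fold DMSO stocks.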

DGKα, sequence (P23743 other isoform, or with tags, fused parts or gaps): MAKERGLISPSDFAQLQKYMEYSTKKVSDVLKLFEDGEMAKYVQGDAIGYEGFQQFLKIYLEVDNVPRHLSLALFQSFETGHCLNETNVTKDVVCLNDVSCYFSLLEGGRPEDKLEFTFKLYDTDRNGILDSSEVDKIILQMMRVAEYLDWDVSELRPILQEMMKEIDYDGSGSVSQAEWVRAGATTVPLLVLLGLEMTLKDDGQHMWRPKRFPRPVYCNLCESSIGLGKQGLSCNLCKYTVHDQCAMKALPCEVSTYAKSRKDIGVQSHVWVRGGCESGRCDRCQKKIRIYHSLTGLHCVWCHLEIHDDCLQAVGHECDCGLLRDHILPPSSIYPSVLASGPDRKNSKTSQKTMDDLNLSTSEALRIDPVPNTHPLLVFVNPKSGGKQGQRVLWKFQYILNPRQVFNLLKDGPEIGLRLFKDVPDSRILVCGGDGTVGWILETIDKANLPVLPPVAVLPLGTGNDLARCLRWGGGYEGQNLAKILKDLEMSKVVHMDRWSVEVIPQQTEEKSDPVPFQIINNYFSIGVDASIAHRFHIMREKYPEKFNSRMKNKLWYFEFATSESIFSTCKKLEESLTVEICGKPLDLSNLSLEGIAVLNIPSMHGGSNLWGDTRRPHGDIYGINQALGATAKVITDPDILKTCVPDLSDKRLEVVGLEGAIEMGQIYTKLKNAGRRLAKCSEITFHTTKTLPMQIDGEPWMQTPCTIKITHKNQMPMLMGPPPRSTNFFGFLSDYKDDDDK

| SMILES | IC50 [nM] |
| --- | --- |
| COCCOc1ccc2c(N3CCC(c4nc5cc(C)ccc5o4)CC3)c(C(N)=O)c(=O)n(C)c2c1 [Example 480, 7-(2-methoxyethoxy)-1-methyl-4-[4-(5-methyl-1 3-benzoxazol-2-yl)piperidin-1-yl]-2-oxo-1,2-dihydroquinoline-3-carboxamide] | 9.8 |
| Cc1ccc2oc(C3CCN(c4c(C(N)=O)c(=O)n(C)c5cc(OCC6CO6)ccc45)CC3)nc2c1 (stereo not shown) [Example 481, 1-methyl-4-[4-(5-methyl-1,3-benzoxazol-2-yl)piperidin-1-yl]-7-{[oxiran-2-yl]methoxy}-2-oxo-1,2-dihydroquinoline-3-carboxamide] | 2 |
| Cc1ccc2oc(C3CCN(c4c(C(N)=O)c(=O)n(C)c5cc(OC6COC6)ccc45)CC3)nc2c1 [Example 485, 1-methyl-4-[4-(5-methyl-1,3-benzoxazol-2-yl)piperidin-1-yl]-7-[(oxetan-3-yl)oxy]-2-oxo-1,2-dihydroquinoline-3-carboxamide] | 2 |
| COc1ccc2oc(C3CCN(c4c(C(N)=O)c(=O)n(C)c5ccccc45)CC3)nc2c1 [Example 486, 4-[4-(5-methoxy-1,3-benzoxazol-2-yl)piperidin-1-yl]-1-methyl-2-oxo-1,2-dihydroquinoline-3-carboxamide] | 5.6 |
| Cn1c(=O)c(C(N)=O)c(N2CCC(c3nc4cc(OCC5CCCO5)ccc4o3)CC2)c2ccccc21 (stereo not shown) [Example 487, 1-methyl-2-oxo-4-(4-{5-[(oxolan-2-yl)methoxy]-1,3-benzoxazol-2-yl}piperidin-1-yl)-1,2-dihydroquinoline-3-carboxamide] | 13 |
| Cn1c(=O)c(C(N)=O)c(N2CCC(F)(c3nc4ccccc4o3)CC2)c2ccccc21 [Example 488, 4-[4-(1,3-benzoxazol-2-yl)-4-fluoropiperidin-1-yl]-1-methyl-2-oxo-1,2-dihydroquinoline-3-carboxamide] | 1.6 |
| COC1(c2nc3ccccc3o2)CCN(c2c(C(N)=O)c(=O)n(C)c3ccccc23)CC1 [Example 489, 4-[4-(1,3-benzoxazol-2-yl)-4-methoxypiperidin-1-yl]-1-methyl-2-oxo-1,2-dihydroquinoline-3-carboxamide] | 7.5 |
| COCc1ccc2oc(C3(C)CCN(c4c(C(N)=O)c(=O)n(C)c5ccccc45)CC3)nc2c1 [Example 490, 4-{4-[5-(methoxymethyl)-1,3-benzoxazol-2-yl]-4-methylpiperidin-1-yl}-1-methyl-2-oxo-1,2-dihydroquinoline-3-carboxamide] | 7.8 |
| COCc1ccc2nc(C3(C)CCN(c4c(C(N)=O)c(=O)n(C)c5ccccc45)CC3)oc2c1 [Example 491, 4-{4-[6-(methoxymethyl)-1,3-benzoxazol-2-yl]-4-methylpiperidin-1-yl}-1-methyl-2-oxo-1,2-dihydroquinoline-3-carboxamide] | 9.1 |
| Cc1ccc2oc(C3CCN(c4c(C(N)=O)c(=O)n(C)c5ccc(Br)cc45)CC3)nc2c1 [Example 492, 6-bromo-1-methyl-4-[4-(5-methyl-1,3-benzoxazol-2-yl)piperidin-1-yl]-2-oxo-1,2-dihydroquinoline-3-carboxamide] | 1.5 |
| Cc1ccc2oc(C3CCN(c4c(C(N)=O)c(=O)n(C)c5c(Br)cccc45)CC3)nc2c1 [Example 493, 8-bromo-1-methyl-4-[4-(5-methyl-1,3-benzoxazol-2-yl)piperidin-1-yl]-2-oxo-1,2-dihydroquinoline-3-carboxamide] | 80 |
| Cc1ccc2oc(C3CCN(c4c(C(N)=O)c(=O)n(C)c5cc(N(C)C6COC6)ccc45)CC3)nc2c1 [Example 494, 1-methyl-4-[4-(5-methyl-1,3-benzoxazol-2-yl)piperidin-1-yl]-7-[methyl(oxetan-3-yl)amino]-2-oxo-1,2-dihydroquinoline-3-carboxamide] | 6.2 |
| Cc1ccc2oc(C3CCN(c4c(C(N)=O)c(=O)n(C)c5cc(N(C)CCO)ccc45)CC3)nc2c1 [Example 495, 7-[(2-hydroxyethyl)(methyl)amino]-1-methyl-4-[4-(5-methyl-1,3-benzoxazol-2-yl)piperidin-1-yl]-2-oxo-1,2-dihydroquinoline-3-carboxamide] | 1.4 |

— US11998539B2, “Substituted aminoquinolones as DGKalpha inhibitors for immune activation” (Bayer Aktiengesellschaft, priority 2019, dated 2024)
